Experimental data reported in patent US12264173B2 (GILEAD SCIENCES, INC., priority 2020, dated 2025).
Like-named read-outs stand apart in the source and are kept apart here.

Assays:
Format in all cases: cell-based
[1] = system: RSV strain A2; assay: microbe, parasite or virus in culture; settings: Table 3, HEp-2 cells, RSV A2, 4 days, read-out: RSV HEp-2 EC50
How it was run: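 Cytopathic-effect protection assay: HEp-2 cells (50,000/mL) infected with pre-titered RSV A2 onto 3-fold serial compound dilutions, incubated 4 days at 37° C. Cell viability read by CellTiter-Glo luminescence; percent inhibition derived against 0% and 100% virus-inhibition controls.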

[2] = system: RSV A2; assay: RSV NHBE EC50 (RSV A2 antiviral assay in NHBE cells); settings: Table 3, NHBE cells, RSV A2, 4 days, read-out: RSV NHBE EC50
How it was run: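 Primary bronchial epithelial cells attach overnight, receive 3-fold serial compound dilutions, and are infected with RSV A2 at 1×10^4.5 tissue culture infectious doses/mL. Protection from virus-induced cell death is scored by luminescent viability assay after 4 days.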

[3] = system: HRV16; assay: HRV16 HeLa EC50 (cytopathic effect in H1-HeLa cells)
How it was run: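 H1-HeLa cells seeded one day before, given 3-fold serial compound dilutions in triplicate just prior to infection with pre-titrated virus. Incubated 96 h at 33 °C/5% CO2; protection from cytopathic effect read as viability by CellTiter-Glo luminescence, normalised to infected untreated (0%) and uninfected (100%) controls.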

[4] = system: DENV2 replicon; assay: DENV-2 Huh-7 Rep EC50 (replicon luminescence)
How it was run: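 Huh-7 cells carrying a DENV2 replicon, 5,000 cells/well, were incubated with dosed compounds for 48 h at 37° C. EnduRen live-cell substrate was added 1.5 h before luminescence reading. EC50 came from dose-response against DMSO-only wells.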

[5] = human respiratory syncytial virus, HEp-2, 96 h
[6] = human respiratory syncytial virus, NHBE, 96 h
[7] = 96 h, Table 3; H1-HeLa cells, 96 h; read-out: HRV16 HeLa EC50
[8] = Dengue virus, DENV2, Huh-7, 48 h, read-out: DENV-2 REP Huh7 EC50
[9] = Table 3; H1-HeLa cells, 96 h; read-out: HRV16 HeLa EC50
[10] = Table 3, Huh-7 DENV2 replicon cells, 48 hours, read-out: DENV-2 REP Huh7 EC50
[11] = Dengue virus, DENV2, Huh-7, 48 h, read-out: DENV-2 REP Huh7 EC50, Table 3, Huh-7 DENV2 replicon cells, 48 hours

Structure (SMILES)	EC50 [1, 5] [nM]	EC50 [2, 6] [nM]	EC50 [3, 7] [nM]	EC50 [4, 8] [nM]	EC50 [1] [nM]	EC50 [2] [nM]	EC50 [3, 9] [nM]	EC50 [4, 10] [nM]	EC50 [4, 11] [nM]
CC(=O)O[C@H]1[C@H](c2ccc3c(N)ncnn23)O[C@](C#N)(CO[P@@](=O)(N[C@@H](C)C(=O)OC(C)C)Oc2ccccc2)[C@H]1OC(C)=O [Example 89, (2R,3S,4S,5S)-5-(4-Aminopyrrolo[2,1-f][1,2,4]triazin-7-yl)-2-cyano-2-((((S)-(((S)-1-isopropoxy-1-oxopropan-2-yl)amino)(phenoxy)phosphoryl)oxy)methyl) tetrahydrofuran-3,4-diyl diacetate]	195	126	785	49700					
CCC(=O)OC1C(c2ccc3c(N)ncnn23)OC(C#N)(COP(=O)(NC(C)C(=O)OCC2CCC2)Oc2ccccc2)C1OC(=O)CC (stereo not drawn) [Example 92]					41	33	104	13600	
CCC(=O)OC1C(c2ccc3c(N)ncnn23)OC(C#N)(COP(=O)(NC(C)C(=O)OCC2CCC2)Oc2ccccc2)C1OC(=O)CC (stereo not drawn) [Example 93]					48	25	171	12800	
CC(=O)O[C@H]1[C@H](c2ccc3c(N)ncnn23)O[C@](C#N)(CO[P@@](=O)(N[C@@H](C)C(=O)OCC2CCC2)Oc2ccccc2)[C@H]1OC(C)=O [Example 95]					90	20	429	19800	
CC(=O)O[C@H]1[C@H](c2ccc3c(N)ncnn23)O[C@](C#N)(CO[P@](=O)(N[C@@H](C)C(=O)OCC2CCC2)Oc2ccccc2)[C@H]1OC(C)=O [Example 96]					63	20	417	16800	
CC(C)C(=O)O[C@H]1[C@H](c2ccc3c(N)ncnn23)O[C@](C#N)(COP(=O)(NCCOC(=O)C(C)(C)C)Oc2ccccc2)[C@H]1OC(=O)C(C)C (stereo partly drawn) [Example 97, (2R,3S,4S,5S)-5-(4-aminopyrrolo[2,1-f][1,2,4]triazin-7-yl)-2-cyano-2-(((phenoxy((2-(pivaloyloxy)ethyl)amino)phosphoryl)oxy)methyl)tetrahydrofuran-3,4-diyl bis(2-methylpropanoate)]	366	> 5000	1120	9050					
CC(=O)O[C@H]1[C@H](c2ccc3c(N)ncnn23)O[C@](C#N)(CO[P@@](=O)(N[C@@H](C)C(=O)OCC2CC2)Oc2ccccc2)[C@H]1OC(C)=O [Example 102]					178	18	526	39100	
CCOC(=O)[C@H](C)N[P@](=O)(OC[C@@]1(C#N)O[C@@H](c2ccc3c(N)ncnn23)[C@H](OC(C)=O)[C@@H]1OC(C)=O)Oc1ccccc1 [Example 104, (2R,3S,4S,5S)-5-(4-aminopyrrolo[2,1-f][1,2,4]triazin-7-yl)-2-cyano-2-((((S)-(((S)-1-ethoxy-1-oxopropan-2-yl)amino)(phenoxy)phosphoryl)oxy)methyl) tetrahydrofuran-3,4-diyl diacetate]	147	32	703	29100					
CCOC(=O)[C@H](C)N[P@](=O)(OC[C@@]1(C#N)O[C@@H](c2ccc3c(N)ncnn23)[C@H](OC(=O)CC)[C@@H]1OC(=O)CC)Oc1ccccc1 [Example 105, (2R,3S,4S,5S)-5-(4-Aminopyrrolo[2,1-f][1,2,4]triazin-7-yl)-2-cyano-2-((((S)-(((S)-1-ethoxy-1-oxopropan-2-yl)amino)(phenoxy)phosphoryl)oxy)methyl) tetrahydrofuran-3,4-diyl dipropionate]	57	13	182	12900					
CC(C)OC(=O)[C@H](C)N[P@](=O)(OC[C@@]1(C#N)O[C@@H](c2ccc3c(NC(=O)C(C)C)ncnn23)[C@H](OC(=O)C(C)C)[C@@H]1OC(=O)C(C)C)Oc1ccccc1 [Example 106]	173	15	805	14600					
CCC(=O)O[C@H]1[C@H](c2ccc3c(N)ncnn23)O[C@](C#N)(CO[P@@](=O)(N[C@@H](C)C(=O)OCC2CCOCC2)Oc2ccccc2)[C@H]1OC(=O)CC [Example 108]					217	6	385	39300	
CCC(=O)O[C@H]1[C@H](c2ccc3c(N)ncnn23)O[C@](C#N)(CO[P@](=O)(N[C@@H](C)C(=O)OCC2CCOCC2)Oc2ccccc2)[C@H]1OC(=O)CC [Example 109]					103	32	379	26300	
CC(=O)O[C@H]1[C@H](c2ccc3c(N)ncnn23)O[C@](C#N)(CO[P@](=O)(N[C@@H](C)C(=O)OCC2CCOCC2)Oc2ccccc2)[C@H]1OC(C)=O [Example 112]					284	40	2900	36500	
CCC(CC)COC(=O)[C@H](C)NP(=O)(N[C@@H](C)C(=O)OCC(CC)CC)OC[C@@]1(C#N)O[C@@H](c2ccc3c(N)ncnn23)[C@H](OC(C)=O)[C@@H]1OC(C)=O [Example 114, (2R,3S,4S,5S)-5-(4-Aminopyrrolo[2,1-f][1,2,4]triazin-7-yl)-2-cyano-2-((((((S)-1-(2-ethylbutoxy)-1-oxopropan-2-yl)amino)(((2S)-1-(2-ethylbutoxy)-1-oxopropan-2-yl)amino)phosphoryl)oxy)methyl)tetrahydrofuran-3,4-diyl diacetate]	1660	201	3850						26300
CCC(=O)O[C@H]1[C@H](c2ccc3c(N)ncnn23)O[C@](C#N)(CO[P@@](=O)(N[C@@H](C)C(=O)OCC2CCN(CC(F)(F)F)CC2)Oc2ccccc2)[C@H]1OC(=O)CC [Example 116]					273	15	303	19700	
CCC(=O)O[C@H]1[C@H](c2ccc3c(N)ncnn23)O[C@](C#N)(CO[P@](=O)(N[C@@H](C)C(=O)OCC2CCN(CC(F)(F)F)CC2)Oc2ccccc2)[C@H]1OC(=O)CC [Example 117]					113	20	462	19100	
CC(=O)O[C@H]1[C@H](c2ccc3c(N)ncnn23)O[C@](C#N)(CO[P@@](=O)(N[C@@H](C)C(=O)OCC2CCN(CC(F)(F)F)CC2)Oc2ccccc2)[C@H]1OC(C)=O [Example 119]					541	27	1050	71400	
CC(=O)O[C@H]1[C@H](c2ccc3c(N)ncnn23)O[C@](C#N)(COP(=O)(N[C@@H](C)C(=O)OC2CCCCC2)N[C@@H](C)C(=O)OC2CCCCC2)[C@H]1OC(C)=O [Example 121, (2R,3S,4S,5S)-5-(4-Aminopyrrolo[2,1-f][1,2,4]triazin-7-yl)-2-cyano-2-((((((S)-1-(cyclohexyloxy)-1-oxopropan-2-yl)amino)(((S)-1-cyclohexyloxy-1-oxopropan-2-yl)amino)phosphoryl)oxy)methyl)tetrahydrofuran-3,4-diyl diacetate]	5450	498	6660						44400
CC(C)[C@H](N)C(=O)O[C@H]1[C@H](c2ccc3c(N)ncnn23)O[C@](C#N)(CO[P@@](=O)(N[C@@H](C)C(=O)OC2CCCCC2)Oc2ccccc2)[C@H]1OC(=O)[C@@H](N)C(C)C [Example 122, (2R,3S,4S,5S)-5-(4-aminopyrrolo[2,1-f][1,2,4]triazin-7-yl)-2-cyano-2-((((S)-(((S)-1-(cyclohexyloxy)-1-oxopropan-2-yl)amino)(phenoxy)phosphoryl)oxy)methyl)tetrahydrofuran-3,4-diyl (2S,2'S)-bis(2-amino-3-methylbutanoate)]	79	90	301	5540					
CCC(=O)O[C@H]1[C@H](c2ccc3c(N)ncnn23)O[C@](C#N)(COP(=O)(N[C@@H](C)C(=O)OC(C)C)N[C@@H](C)C(=O)OC(C)C)[C@H]1OC(=O)CC [Example 123, ((2R,3S,4R,5S)-5-(4-aminopyrrolo[2,1-f][1,2,4]triazin-7-yl)-2-cyano-3,4-dipropionatetetrahydrofuran-2-yl)methyl bis-isopropyl L-alaninate phosphate]	2280	175	7570						> 50000
CCOC(=O)[C@H](C)NP(=O)(N[C@@H](C)C(=O)OCC)OC[C@@]1(C#N)O[C@@H](c2ccc3c(N)ncnn23)[C@H](OC(=O)CC)[C@@H]1OC(=O)CC [Example 124, ((2R,3S,4R,5S)-5-(4-aminopyrrolo[2,1-f][1,2,4]triazin-7-yl)-2-cyano-3,4-dipropionatetetrahydrofuran-2-yl)methyl bis-ethyl L-alaninate phosphate]	2100	150	8390						> 50000
